Experimental data as given in patent US20250295608A1, “PHARMACEUTICAL COMPOSITIONS AND METHODS FOR TREATING OSTEOARTHRITIS” (INSIGNIA PHARMACEUTICALS, LLC, priority 2024, published 2025).
“Also recorded” adds a separate entry of the source. Each block holds one compound with its values, some of them ahead of it.

Assays:
[1] = test system: interleukin-18, tumor necrosis factor, interleukin-8, and interleukin-6; assay: Other cytokines in two-hit stimulated THP1 macrophages; type: cell-based, human; conditions: dose dependent; data not shown
PGE2 = assay: IL-1β-induced PGE2 in osteoarthritic human synoviocytes; type: cell-based; conditions: for PGE2 release: 200 nanomolar DA or 500 ng/mL IL-1RA, pretreatment 5 min, 1 h or 2 h, IL-1β 1 ng/mL for 10 minutes or 1 hour
Procedure: FIG. 31A depicts early concentrations of PGE2 present in primary […] of varying concentrations of Dex and DA in view of controls. The concentrations in FIG. 31A were measured at hour three.
FIG. 31B is a bar graph depicting PGE2 release from human osteoarthritic synoviocytes treated with media, 200 nanomolar DA, or 500 nanograms/milliliter of IL-1 Receptor Antagonist (IL-1RA) for the specified pretreatment times at the bottom of each panel (5 minutes, 1 hour, or 2 hours, and then stimulated with 1 nanogram/milliliter IL-1β for either 10 minutes or 1 hour, as indicated. PGE2 in picograms/milliliter was released at detectable levels in each of the media treated samples, including the short 10-minute IL-1β stimulation conditions, implicating low level activation caused by a change of media. The media controls within each panel of treatments released increased PGE2 compared to DA treated cells. Cells were also treated with IL-IRA which inhibits IL-1β by binding […], effectively blocking IL-1β signaling. […] DA is able to incorporate into the cell membrane_and the immediate inhibition of signaling may reflect the ability of DA to change the biophysical properties of the cell membrane.
FIG. 33 illustrates two bar graphs that depict the concentrations of PGE2 inside of the cell versus PGE2 that was secreted into the cell culture media. Specifically, the bar graph labeled “Intracellular” illustrates the concentrations of PGE2 inside of the cell and the bar graph labeled “Supernatent” illustrates the concentration of PGE2 that was secreted into the cell culture media. Synoviocytes were stimulated with IL-1β for 6 hours and then cell culture media harvested separately along with collecting cell lysates. […] Specifically, treating osteoarthritic HSF cells with 1 ng/ml IL-1β final concentration causes the cells to secrete large amounts of PGE2 into the cell culture media. […] To test this, the PGE2 concentrations inside of the cells and in the cell culture media were measured to compare them directly to each other. […] Thus, without being bound by theory, it is believed that DA binds to or interacts with MRP4 proteins and prevents MRP4 from successfully transporting PGE2.

prostaglandin I2 (PGI2) = assay: PGI2 in IL-1β-stimulated osteoarthritic synoviocytes; type: cell-based, human; conditions: IL-1β 1 ng/ml, 24 hours
Procedure: FIG. 25 is a bar graph that depicts the concentration of prostaglandin I2 (PGI2) present in primary human synoviocytes from patients with osteoarthritis that were stimulated with 1 ng/ml final concentration of IL-1β for 24 hours in the presence of varying concentrations of DA and Dex in view of controls. PGI2 concentration response mirrored PGE2 concentrations after DA treatment. […] It is noted that prostaglandin H2 (PGH2) was also tested and was not detected in either cell culture media or from cell lysates. Without being bound by theory, it is believed that PGH2 is an intermediate and is (near) immediately converted into downstream prostaglandins and therefore levels of PGH2 are not detectable.

Cyclooxygenase-2 (COX-2) = target: T1, Cyclooxygenase-2 (COX-2) (Homo sapiens, UniProt P35354); assay: COX-2 inhibitor screen; type: biochemical; conditions: any of the concentrations tested
T1 sequence (P35354 18-604): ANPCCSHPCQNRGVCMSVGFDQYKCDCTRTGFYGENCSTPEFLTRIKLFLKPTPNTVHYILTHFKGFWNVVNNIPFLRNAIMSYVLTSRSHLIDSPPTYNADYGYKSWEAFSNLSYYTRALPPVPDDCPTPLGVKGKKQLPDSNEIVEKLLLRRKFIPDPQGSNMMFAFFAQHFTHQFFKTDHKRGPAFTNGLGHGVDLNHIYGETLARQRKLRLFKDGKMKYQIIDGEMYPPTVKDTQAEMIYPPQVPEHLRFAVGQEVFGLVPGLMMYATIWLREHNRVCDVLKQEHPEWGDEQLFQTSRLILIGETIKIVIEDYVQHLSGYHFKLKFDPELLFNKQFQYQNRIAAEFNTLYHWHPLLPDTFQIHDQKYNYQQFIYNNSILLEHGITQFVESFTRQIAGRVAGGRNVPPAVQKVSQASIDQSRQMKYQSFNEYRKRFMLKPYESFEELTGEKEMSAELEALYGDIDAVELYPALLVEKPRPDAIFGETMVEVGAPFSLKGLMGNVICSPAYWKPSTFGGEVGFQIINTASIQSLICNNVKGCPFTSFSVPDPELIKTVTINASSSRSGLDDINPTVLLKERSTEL

SOX9 = SOX9 relative expression in osteoarthritic chondrocytes (qRT-PCR, normalized to GAPDH); type: cell-based, human
arachidonic acid (AA) = assay: Arachidonic acid in IL-1β-stimulated osteoarthritic synoviocytes; type: cell-based, human; conditions: IL-1β 1 ng/mL, 3 hours; cell lysates
Procedure: Early concentrations of arachidonic acid (AA) present in primary human synoviocytes from patients with osteoarthritis that were stimulated with 1 ng/mL final concentration interleukin 1-beta (B) for 3 hours in the presence of varying concentrations of Dex and DA in view of controls are depicted in FIG. 32. The concentrations of AA in FIG. 32 were normalized to total protein content from the cell lysates using bicinchoninic acid (BCA).

prostaglandin D2 (PGD2) = assay: IL-1β-induced PGD2 release in osteoarthritic human synoviocytes; type: cell-based; conditions: IL-1β 0.5 ng/mL
[2] = test system: IL-1β-induced PGE2 release; assay: IL-1β-induced PGE2 release from normal human chondrocytes (competitive EIA); type: cell-based; conditions: for inhibition at 10 µM: Homo sapiens, Chondrocyte
MMP13 = MMP13 relative expression in osteoarthritic chondrocytes (qRT-PCR); type: cell-based, human; conditions: for Observed Relative expression of MMP13: 0.1% HA, 0.1 uM Dex
type I collagen (Col1a1) = assay: Col1a1 relative expression in osteoarthritic chondrocytes (qRT-PCR); type: cell-based; conditions: passage 5 human osteoarthritic chondrocytes, 27 days
Procedure: To evaluate the biological ramifications of the SOX9 to RUNX2 regulation mentioned above, delta-delta relative gene expression was assessed against medium controls, with normalization to GAPDH for both Col2a1 and Col1a1 in the samples tested with reference to Example 15. […] Moreover, treatment with 100 mM Lac increased collagen expression (49.88+4.31 and 1.63+0.20 for Col2a1 and Col1a1, respectively; FIGS. 51 and 52).

Elastin (ELN) = assay: ELN mRNA in normal human dermal fibroblasts (NHDF), qRT-PCR; type: cell-based; conditions: IL-1β 0.1 ng/ml, 24 hours; 100 mM Lac, 0.1 mM Dxp; n=3
Procedure: (§1) After 24 hours, total mRNA was isolated and delta-delta Cp relative expression was calculated versus untreated medium controls, normalized to the housekeeping gene, GAPDH. Statistical analysis was then conducted via t-test.

RUNX2 = RUNX2 relative expression in osteoarthritic chondrocytes (qRT-PCR)
[3] = test system: matrix metalloproteinase 12 (MMP12); assay: MMP12 mRNA in NHDF, qRT-PCR; type: cell-based, human; conditions: IL-1β 0.1 ng/ml, 24 hours; 100 mM Lac, 0.1 mM Dxp
Procedure: as §1

Aggrecan (ACAN) = assay: ACAN relative expression in osteoarthritic chondrocytes (qRT-PCR); type: cell-based; conditions: passage 5 human osteoarthritic chondrocytes, 27 days
[4] = test system: type II collagen (Col2a1); assay: Col2a1 relative expression in osteoarthritic chondrocytes (qRT-PCR); type: cell-based, human
SOX9 versus RUNX2 = assay: Relative expression of SOX9 versus RUNX2 in osteoarthritic chondrocytes; type: cell-based, human; conditions: for expression of SOX9 compared to RUNX2: passage 5 human osteoarthritic chondrocytes, 27 days
[5] = test system: matrix metalloproteinase 3 (MMP3); assay: MMP3 mRNA in NHDF, qRT-PCR; type: cell-based, human; conditions: IL-1β 0.1 ng/ml, 24 hours; 100 mM Lac, 0.1 mM Dxp
Procedure: as §1

IL-1β release = assay: Two-hit (LPS then ATP) inflammasome activation, IL-1β release from THP1 macrophages; type: cell-based, human; conditions: with 25 nanomolar Dex
[6] = high passage, dedifferentiated osteoarthritic chondrocytes, TGF-β3, 14 days
[7] = low passage osteoarthritic chondrocytes, 7, 14, 28 days
[8] = pre-incubation 24 hours, 24-hour harvest, 25 uM Dec, 28 mM Lac, 10 uM LA, singlet
[9] = rescue (added after overnight IL-1β activation), 24-hour harvest, 25 uM Dec, 28 mM Lac, 10 uM LA, singlet
[10] = rescue, 96-hour harvest, 25 uM Dec, 28 mM Lac, 10 uM LA, singlet
[11] = passage 5 human osteoarthritic chondrocytes, 27 days
[12] = 100 millimolar Lac with 10 ng/mL TGF-B3, 14 days, micromass cultures
[13] = 100 millimolar Lac, 14 days, monolayer cultures

inhibition of COX-2 activity (Cyclooxygenase-2 (COX-2)): no observed inhibition
Compound: CCCCCCCCCC(=O)O [DA, decanoic acid]
expression of interleukin-18, tumor necrosis factor, interleukin-8, and interleukin-6 [1]: reduced the expression
PGE2 release (PGE2): blocked the low-level activation seen in media controls
concentrations inhibiting PGE2 release (PGE2; IL-1β 0.5 ng/mL): above 1 micromolar
PGE2 inside of the cell (PGE2; IL-1β 1 ng/ml, 6 hours, cell lysates): causes PGE2 to build up intracellularly
PGE2 secreted into the cell culture media (PGE2; IL-1β 1 ng/ml, 6 hours, supernatant): causes PGE2 secretion to be abrogated
increase in potency of DA (PGE2; by 100 picomolar Dex): 2.2 ×
secreted PGI2 levels (prostaglandin I2 (PGI2)): decreases secreted PGI2 levels
SOX9 expression (SOX9; [6]): increased SOX9 transcription
concentration of AA normalized to total protein (arachidonic acid (AA)): lower concentrations of AA than the Dex samples; also recorded: lower than that of the control with IL-1β
concentrations inhibiting PGD2 release (prostaglandin D2 (PGD2)): above 1 micromolar

Compound: CCCCCCCCCC(=O)O [DA/Dec]
SOX9 expression (SOX9; [6]): increased expression of SOX9

Compound: C[C@@H]1C[C@H]2[C@@H]3CCC4=CC(=O)C=C[C@]4(C)[C@@]3(F)[C@@H](O)C[C@]2(C)[C@@]1(O)C(=O)CO [Dex, dexamethasone, reference compound]
concentration with statistical significance, PGE2 release ([2]; IL-1β, 48 h): 100 picomolar

Compound: C[C@@H]1C[C@H]2[C@@H]3CCC4=CC(=O)C=C[C@]4(C)[C@@]3(F)[C@@H](O)C[C@]2(C)[C@@]1(O)C(=O)COP(=O)(O)O [Dxp, dexamethasone phosphate, reference compound]
SOX9 expression (SOX9; [6]): decreased expression of SOX9
SOX9 expression (SOX9; [7]): temporal decrease in expression of SOX9
MMP13 transcription (MMP13; [7]): reduce MMP13 transcription

Compound: O=C(O)CCCCC1CCSS1 (stereo not drawn) [LA, α-lipoic acid]
inhibition at 10 µM ([2]; 96 h, rescue, 96-hour harvest, 25 uM Dec, 28 mM Lac, 10 uM LA, singlet): 33%
inhibition at 10 µM [2, 8]: -59%
SOX9 expression (SOX9; [6]): increased SOX9 transcription; also recorded: increases SOX9 relative expression

Compound: CC(O)C(=O)O (centres unmarked) [Lac, lactate]
relative expression of Col1a1 versus medium controls (type I collagen (Col1a1)): 1.63+0.20 fold
relative expression of ELN (Elastin (ELN)): 0.86+3
inhibition of PGE2 release ([2]; 100 millimolar Lac, 0.5 ng/mL IL-1β, 48 h): complete inhibition
concentration with statistically significant effect, PGE2 release ([2]; IL-1β, 48 h): ≥ 10 millimolar
inhibition of PGE2 release [2, 8]: −139%
inhibition of PGE2 release [2, 9]: 64%
inhibition of PGE2 release [2, 10]: 27%
RUNX2 expression (RUNX2; [7]): temporal decrease in RUNX2; also recorded: temporally reduced RUNX2 expression
relative expression of RUNX2 versus medium controls (RUNX2; [11]): −2.51+1.33
increase in SOX9 (SOX9; [12]): 9 fold
increase in relative expression of SOX9 (SOX9; [13]): 8 fold
increase in SOX9 transcription (SOX9; high passage osteoarthritic chondrocytes, TGF-B, 14 days, 100 mm LA, 28 mM Lac): 2 fold
SOX9 expression (SOX9; [6]): increased SOX9 transcription; also recorded: increased expression of SOX9
SOX9 expression (SOX9; [7]): temporal increase in SOX9
relative expression of SOX9 versus medium controls (SOX9; passage 5 human osteoarthritic chondrocytes, 27 days, 50 micromolar Dec, 0.1 micromolar Dxp, 100 millimolar Lac): 6.34+2.46 fold
relative expression of MMP12 [3]: 2.2 ± 0.8
relative expression of ACAN (Aggrecan (ACAN)): 3.81+0.77 fold
increase in Col2a1 [4, 12]: 88 fold
increase in collagen ([4]; 100 millimolar Lac, 14 days, micromass pellets): 11 fold
increase in relative expression of Col2a1 [4, 13]: 1600 fold
increase in Col2a1 compared to controls ([4]; high passage osteoarthritic chondrocytes, TGF-B, 14 days, 28 mM Lac): 30 fold
relative expression of Col2a1 ([4]; low passage osteoarthritic chondrocytes, day 28): elevated Col2a1 relative expression
relative expression of Col2a1 versus medium controls [4, 11]: 49.88+4.31 fold
ratio of SOX9/RUNX2 (SOX9 versus RUNX2; [7]): temporally increased
expression of SOX9 compared to RUNX2 (SOX9 versus RUNX2): 25.14+12.71
relative expression of MMP3 [5]: 1.5 ± 0.8

Compound: CCCCCCCCCC(=O)[O-].[Na+] [decanoate, sodium decanoate]
increase in potency of sodium decanoate (IL-1β release): 4.6 ×
inhibition of PGE2 release ([2]; added at the same time as IL-1β, 24-hour harvest, 25 uM Dec, singlet): 53%
inhibition of PGE2 release ([2]; added at the same time as IL-1β, 96-hour harvest, 25 uM Dec, singlet): 76%
inhibition of PGE2 release [2, 8]: 41%
inhibition of PGE2 release ([2]; pre-incubation, 96-hour harvest, 25 uM Dec, singlet): 75%
inhibition of PGE2 release [2, 9]: 72%
inhibition of PGE2 release [2, 10]: 57%
expression of SOX9 compared to RUNX2 (SOX9 versus RUNX2): 1.80+0.47

Compound: IL-1RA: IL-1 Receptor Antagonist, blocks IL-1β signaling [reference compound]
PGE2 release (PGE2): consistently higher than PGE2 levels in DA treated cells

Compound: hyaluronic acid [HA]
Observed Relative expression of MMP13 (MMP13; 14-day micromass pellet culture): −1.6 fold
Observed Relative expression of MMP13 (MMP13; 28-day monolayer culture): 1.0 fold
